# Measurements as given in the supplement of paper PMC10627819.
# What was measured:
# Assay in all cases: Bliss interaction score (quartile over a dose matrix) (fitness difference); higher = more antagonism (negative = synergy)
# [1] = test system: B. subtilis 168
# Summary of the method: (§1)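 The Bliss score is observed fitness minus expected fitness, where the expected value is the product of single-drug fitness values inferred from combination data. Fitness is OD595 at entry into stationary phase normalised to the plate's robust no-drug mean and capped at 1. Scores are reported as quartiles spanning technical, biological and donor/recipient replicates.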
# [2] = test system: S. aureus DSM 20231
# Summary of the method: as §1
# [3] = test system: S. aureus Newman
# Summary of the method: as §1
# [4] = test system: S. pneumoniae D39V
# Summary of the method: as §1
# 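Also: first quartile when negative (synergy) and third quartile when positive (antagonism).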
SMILES,Bliss interaction score [1],Bliss interaction score [2],Bliss interaction score [3],Bliss interaction score [4]
CN(C)[C@@H]1C(O)=C(C(N)=O)C(=O)[C@@]2(O)C(O)=C3C(=O)c4c(O)ccc(Cl)c4[C@@](C)(O)[C@H]3C[C@@H]12 [Clortetracycline] + O=C(O[C@@H]1Cc2c(O)cc(O)cc2O[C@@H]1c1cc(O)c(O)c(O)c1)c1cc(O)c(O)c(O)c1 [EGCG],-0.096,0.114,-0.0462,-0.0892
CC1(C)S[C@@H]2[C@H](NC(=O)Cc3ccccc3)C(=O)N2[C@H]1C(=O)O [PenicillinG] + C/C(=C\C(=O)OCCCCCCCCC(=O)O)C[C@@H]1OC[C@H](C[C@@H]2O[C@H]2[C@@H](C)[C@H](C)O)[C@@H](O)[C@H]1O [Pseudomonic acid],0.0659,0.0362,0.0196,0.0842
N#CC(C#N)=NNc1cccc(Cl)c1 [CCCP] + COc1cc(Cc2cnc(N)nc2N)cc(OC)c1OC [Trimethoprim],0.0605,0.0495,-0.0599,0.183
CC1(C)S[C@@H]2[C@H](NC(=O)Cc3ccccc3)C(=O)N2[C@H]1C(=O)O [PenicillinG] + Cc1cc(NS(=O)(=O)c2ccc(N)cc2)no1 [Sulfamethoxazol],0.0445,-0.0626,0.0475,-0.0954
CC1(C)S[C@@H]2[C@H](NC(=O)Cc3ccccc3)C(=O)N2[C@H]1C(=O)O [PenicillinG] + CN1C2=CC=CC=C2N=C3C1=CC=CC3=O [Pyocyanin],-0.0227,0.0541,0.0699,0.144
CN(C)[C@@H]1C(O)=C(C(N)=O)C(=O)[C@@]2(O)C(O)=C3C(=O)c4c(O)ccc(Cl)c4[C@@](C)(O)[C@H]3C[C@@H]12 [Clortetracycline] + C/C(=C\C(=O)OCCCCCCCCC(=O)O)C[C@@H]1OC[C@H](C[C@@H]2O[C@H]2[C@@H](C)[C@H](C)O)[C@@H](O)[C@H]1O [Pseudomonic acid],-0.0689,0.0276,0.0209,0.0729
CN(C)[C@@H]1C(O)=C(C(N)=O)C(=O)[C@@]2(O)C(O)=C3C(=O)c4c(O)ccc(Cl)c4[C@@](C)(O)[C@H]3C[C@@H]12 [Clortetracycline] + C[n+]1ccc(-c2cc[n+](C)cc2)cc1 [Paraquat],0.0974,0.0363,-0.0418,-0.026
N#CC(C#N)=NNc1cccc(Cl)c1 [CCCP] + CN(C)C(=O)C(CCN1CCC(O)(c2ccc(Cl)cc2)CC1)(c1ccccc1)c1ccccc1 [Loperamide],0.0251,-0.0407,0.0942,-0.227
CC(=O)Oc1ccccc1C(=O)O [Acetylsalicylicacid] + Cc1onc(-c2ccccc2)c1C(=O)N[C@@H]1C(=O)N2[C@@H]1SC(C)(C)[C@@H]2C(=O)O [Oxacillin],0.0506,0.113,0.0916,0.0623
N#CC(C#N)=NNc1cccc(Cl)c1 [CCCP] + CCC[C@@H]1C[C@@H](C(=O)N[C@@H]([C@H]2O[C@H](SC)[C@H](O)[C@@H](O)[C@H]2O)[C@H](C)Cl)N(C)C1 [Clindamycin],-0.0426,0.0216,0.0938,-0.138
CC(=O)Oc1ccccc1C(=O)O [Acetylsalicylicacid] + CCC[C@@H]1C[C@@H](C(=O)N[C@@H]([C@H]2O[C@H](SC)[C@H](O)[C@@H](O)[C@H]2O)[C@@H](C)O)N(C)C1 [Lincomycin],-0.0832,0.199,0.0556,0.0801
N#CC(C#N)=NNc1cccc(Cl)c1 [CCCP] + CO/N=C(\C(=O)N[C@@H]1C(=O)N2C(C(=O)[O-])=C(C[N+]3(C)CCCC3)CS[C@H]12)c1csc(N)n1 [Cefepime],0.0769,0.1,0.0498,-0.0827
CO/N=C(\C(=O)N[C@@H]1C(=O)N2C(C(=O)O)=C(COC(C)=O)CS[C@H]12)c1csc(N)n1 [Cefotaxime] + CC1(C)S[C@@H]2[C@H](NC(=O)Cc3ccccc3)C(=O)N2[C@H]1C(=O)O [PenicillinG],-0.151,-0.0835,-0.0351,-0.0791
CO/N=C(\C(=O)N[C@@H]1C(=O)N2C(C(=O)O)=C(COC(N)=O)CS[C@H]12)c1ccco1 [Cefuroxime] + O=C(O)c1cn(C2CC2)c2cc(N3CCNCC3)c(F)cc2c1=O [Ciprofloxacin],-0.171,-0.31,-0.0563,-0.0381
CN(C)[C@@H]1C(O)=C(C(N)=O)C(=O)[C@@]2(O)C(O)=C3C(=O)c4c(O)ccc(Cl)c4[C@@](C)(O)[C@H]3C[C@@H]12 [Clortetracycline] + COc1c(N2C[C@@H]3CCCN[C@@H]3C2)c(F)cc2c(=O)c(C(=O)O)cn(C3CC3)c12 [Moxifloxacin],-0.0182,0.119,0.101,0.0374
CO/N=C(\C(=O)N[C@@H]1C(=O)N2C(C(=O)O)=C(COC(N)=O)CS[C@H]12)c1ccco1 [Cefuroxime] + CC[C@H]1OC(=O)[C@H](C)[C@@H](O[C@H]2C[C@@](C)(OC)[C@@H](O)[C@H](C)O2)[C@H](C)[C@@H](O[C@@H]2O[C@H](C)C[C@H](N(C)C)[C@H]2O)[C@](C)(O)C[C@@H](C)C(=O)[C@H](C)[C@@H](O)[C@]1(C)O [Erythromycin],-0.0464,-0.255,0.0555,0.0365
CC(=O)Oc1ccccc1C(=O)O [Acetylsalicylicacid] + C[C@@H](O)[C@H]1C(=O)N2C(C(=O)O)=C(SCCNC=N)C[C@H]12 [Imipenem],-0.34,0.0498,0.0337,0.0958
CC(=O)Oc1ccccc1C(=O)O [Acetylsalicylicacid] + CC1=C(C(=O)O)N2C(=O)[C@@H](NC(=O)[C@H](N)c3ccccc3)[C@H]2SC1 [Cephalexin],0.108,0.0849,0.0494,0.241
CC(=O)Oc1ccccc1C(=O)O [Acetylsalicylicacid] + CC(=O)O[C@H]1C[C@@]2(C)[C@@H](C[C@@H](O)[C@H]3[C@@]4(C)CC[C@@H](O)[C@@H](C)[C@@H]4CC[C@@]32C)/C1=C(\CCC=C(C)C)C(=O)O [Fusidic acid],-0.0821,0.0354,-0.0211,0.0675
CO/N=C(\C(=O)N[C@@H]1C(=O)N2C(C(=O)O)=C(COC(N)=O)CS[C@H]12)c1ccco1 [Cefuroxime] + CC[C@H]1OC(=O)[C@H](C)[C@@H](O[C@H]2C[C@@](C)(OC)[C@@H](O)[C@H](C)O2)[C@H](C)[C@@H](O[C@@H]2O[C@H](C)C[C@H](N(C)C)[C@H]2O)[C@](C)(OC)C[C@@H](C)C(=O)[C@H](C)[C@@H](O)[C@]1(C)O [Clarithromycin],-0.0354,-0.249,0.0734,0.0629
CN(C)[C@@H]1C(O)=C(C(N)=O)C(=O)[C@@]2(O)C(O)=C3C(=O)c4c(O)ccc(Cl)c4[C@@](C)(O)[C@H]3C[C@@H]12 [Clortetracycline] + COc1cc(Cc2cnc(N)nc2N)cc(OC)c1OC [Trimethoprim],0.135,0.0736,0.102,-0.0376
CC(=O)Oc1ccccc1C(=O)O [Acetylsalicylicacid] + Oc1cc(Cl)ccc1Oc1ccc(Cl)cc1Cl [Triclosan],0.129,-0.114,-0.0273,-0.0513
Cc1ncc([N+](=O)[O-])n1CCO [Metronidazole] + CN[C@H](CC(C)C)C(=O)N[C@H]1C(=O)N[C@@H](CC(N)=O)C(=O)N[C@H]2C(=O)N[C@H]3C(=O)N[C@H](C(=O)N[C@H](C(=O)O)c4cc(O)cc(O)c4-c4cc3ccc4O)[C@H](O[C@H]3C[C@](C)(N)[C@@H](O)[C@H](C)O3)c3ccc(c(Cl)c3)Oc3cc2cc(c3O[C@@H]2O[C@H](CO)[C@@H](O)[C@H](O)[C@H]2O[C@H]2C[C@](C)(NCc3ccc(-c4ccc(Cl)cc4)cc3)[C@@H](O)[C@H](C)O2)Oc2ccc(cc2Cl)[C@H]1O [Oritavancin],-0.0222,0.0377,0.0752,-0.0396
CC(=O)Oc1ccccc1C(=O)O [Acetylsalicylicacid] + CN[C@H](CC(C)C)C(=O)N[C@H]1C(=O)N[C@@H](CC(N)=O)C(=O)N[C@H]2C(=O)N[C@H]3C(=O)N[C@H](C(=O)N[C@H](C(=O)O)c4cc(O)cc(O)c4-c4cc3ccc4O)[C@H](O[C@H]3C[C@](C)(N)[C@@H](O)[C@H](C)O3)c3ccc(c(Cl)c3)Oc3cc2cc(c3O[C@@H]2O[C@H](CO)[C@@H](O)[C@H](O)[C@H]2O[C@H]2C[C@](C)(NCc3ccc(-c4ccc(Cl)cc4)cc3)[C@@H](O)[C@H](C)O2)Oc2ccc(cc2Cl)[C@H]1O [Oritavancin],-0.0215,0.0533,0.086,0.071
